Results reported in patent US9964543B2, “Selection of medicaments that modulate the function and activity of interleukin 13” (GLYCAN BIOSCIENCES LLC, priority 2007, dated 2018).

Legend:
[1] = test system: IL-13 dependent proliferation of TF-1.8 cells; assay: IL-13 dependent proliferation of TF-1.8 cells (luciferase); type: cell-based, human; conditions: 10 μg/ml, titration of IL-13 (FIG. 2A)
Excerpt: Heparin inhibited the proliferation of a human IL-13 responsive cell line. This occurs at very low doses and is not due to a toxic effect of the heparin because other, similarly sulfated polysaccharides, at the same concentrations of IL-13 and polysaccharide have no effect. These experiments utilize the TF-1.8 cells. TF-1.8 cells are a subclone of the TF-1 cells that have been selected for growth in IL-4, and because IL-4 and IL-13 share a receptor these cells are also responsive to IL-13. TF-1 cells were originally established from a bone marrow sample from a person with severe pancytopenia. […]
TF-1.8 cells have been transfected with the firefly luciferase gene contained in the expression vector, pPGK-puromycin-luciferase (Coombe et al, J. Immunol. Methods 215:145-150, 1998). […] The cells are counted with a Coulter Z2 Particle Counter and Size Analyzer (Coulter Electronics, England) and routinely 2.5×10^4 cells are added to microplate wells that contain either no IL-13 (negative control) or various dilutions of IL-13. When the effect of PPS, or other sulfated polysaccharides is to be measured, the wells also contain various concentrations of these molecules. […]
PPS inhibited the proliferation of a human IL-13 responsive cell line. […] When the effect of PPS is to be measured, the wells also contain various concentrations of this molecule. […]

IL-13 Rα2 = target: T1, IL-13 Rα2 (Homo sapiens, UniProt Q14627); conditions: high affinity; cited from earlier work
T1 sequence (Q14627 27-380): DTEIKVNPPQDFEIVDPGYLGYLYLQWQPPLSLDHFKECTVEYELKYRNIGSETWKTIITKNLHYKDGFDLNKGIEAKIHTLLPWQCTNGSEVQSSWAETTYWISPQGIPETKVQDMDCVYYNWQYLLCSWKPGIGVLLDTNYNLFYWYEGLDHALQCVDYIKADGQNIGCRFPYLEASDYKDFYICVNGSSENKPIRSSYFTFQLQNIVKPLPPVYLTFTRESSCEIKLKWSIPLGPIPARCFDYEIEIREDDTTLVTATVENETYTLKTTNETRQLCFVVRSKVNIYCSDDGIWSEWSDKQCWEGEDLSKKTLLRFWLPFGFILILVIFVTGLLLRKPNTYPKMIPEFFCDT

TF-1 cells = assay: TF-1 cell proliferation induced by IL-13 proteins; type: cell-based, human
Description: The ability of sulfated xylans to inhibit IL-13 mediated cell proliferation is size dependent. These experiments utilized the TF-1 cell line from which the TF1.8 cells were derived. The assay is performed as described above with the TF1.8 cells the differences being the concentration of IL-13 required for cell growth and the fact that cell number is determined using a dye. Briefly, proliferation assays are carried out in 96-well microplates suitable for such assays. Cells are washed to remove any cytokine in the growth medium and then resuspended in RPMI/5% w/v FCS and routinely 2.5×10^4 cells are added to microplate wells that contain either no IL-13 (negative control) or various dilutions of IL-13. When the effect of the different sized sulfated xylans was measured, the wells also contained various concentrations of these molecules and the IL-13 concentration was held constant at 2.5 ng/ml. The cells proliferated for 48 hours, after which the number of cells present was quantified by staining with […] of the AQUEOUS ONE dye for 3 hours and then absorbance was read at 490 nm.
The IL-13R111 wild type and the IL-13Q111 variant are shown for comparison.
Details of the assay are given in Example 6.

[2] = BIACORE binding of IL-13 proteins to immobilized heparin; conditions: surface plasmon resonance
Excerpt: The optical phenomenon of surface plasmon resonance is used to monitor physical interactions between molecules. Passing a solution of a potential protein ligand (e.g. IL-13) over a sensor surface to which a target (e.g. heparin) is coupled monitors the real-time binding of protein ligands to the immobilized target. Detection is achieved by measuring refractive index changes very close to the sensor surface. When the refractive index is altered, the angle at which plasmon resonance occurs changes and this change directly correlates with the amount of protein interacting with the surface. A BIACORE 2000 sensor chip is conveniently used. It is very sensitive and its microfiuidics ensures that only small amounts of material are required.
Biotinylated heparin is immobilized on the biosensor chip. […] Solutions containing potential protein ligands of interest are injected over the sensor chip surface, and the binding is measured in real time (Femig, In: Proteoglycan protocols, Ed. R. V. Iozzo, Humana Press, Totowa, N.J., USA, 2001). Bacterially expressed recombinant human IL-13 (rhIL-13) readily binds to heparin immobilized by this method. […]
Site directed mutagenesis was performed on IL-13. […] Mutant IL-13 proteins were examined for their ability to bind heparin immobilized on a biosensor chip and binding was assessed using a BIACORE 2000 sensor chip.

IL-13Rα1 = target: T2, IL-13Rα1 (Homo sapiens, UniProt P78552); conditions: low-moderate affinity; read-out: affinity of IL-13Rα1 by itself for IL-13; cited from earlier work
T2 sequence (P78552 22-427): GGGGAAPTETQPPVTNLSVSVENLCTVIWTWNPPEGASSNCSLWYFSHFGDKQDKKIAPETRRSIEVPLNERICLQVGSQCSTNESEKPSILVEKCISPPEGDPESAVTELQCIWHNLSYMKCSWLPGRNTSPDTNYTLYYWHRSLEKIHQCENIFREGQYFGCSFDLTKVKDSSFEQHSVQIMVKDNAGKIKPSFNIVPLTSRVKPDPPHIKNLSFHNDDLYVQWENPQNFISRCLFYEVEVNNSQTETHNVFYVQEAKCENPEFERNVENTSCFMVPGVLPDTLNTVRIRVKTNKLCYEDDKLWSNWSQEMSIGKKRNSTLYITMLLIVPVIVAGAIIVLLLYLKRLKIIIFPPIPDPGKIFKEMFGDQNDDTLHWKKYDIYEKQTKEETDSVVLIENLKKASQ

## O=S(=O)(O)OC[C@H]1O[C@@](COS(=O)(=O)O)(O[C@H]2O[C@H](COS(=O)(=O)O)[C@@H](OS(=O)(=O)O)[C@H](OS(=O)(=O)O)[C@H]2OS(=O)(=O)O)[C@@H](OS(=O)(=O)O)[C@@H]1OS(=O)(=O)O [sucrose octasulfate]
[1]
  inhibition of IL-13 mediated cell proliferation: very little inhibitory activity

## IL-13 WT (R111): wild type human IL-13 with arginine in the 111 position; 1IJZ.pdb monomer in docking
IL-13 Rα2
  Kd: 0.5 to 1.2 nM
TF-1 cells
  Concentration of IL-13 required for 50% TF-1 cell proliferation ED50 ave: 1.2 ng/mL
TF-1 cells; FIG. 7A
  cell proliferative activity in the TF-1 cell assay: comparable
[2]; listed as rhIL-13
  binding to heparin immobilized on BIACORE sensor chip: readily binds
[2]; listed as wild type IL-13
  binding to heparin immobilized on BIACORE sensor chip: binds heparin more strongly
IL-13Rα1
  Kd: 2 to 10 nM
